Target: T1, Sphingomyelin phosphodiesterase 3 (Homo sapiens, UniProt Q9NY59)
T1 sequence (Q9NY59 whole entry): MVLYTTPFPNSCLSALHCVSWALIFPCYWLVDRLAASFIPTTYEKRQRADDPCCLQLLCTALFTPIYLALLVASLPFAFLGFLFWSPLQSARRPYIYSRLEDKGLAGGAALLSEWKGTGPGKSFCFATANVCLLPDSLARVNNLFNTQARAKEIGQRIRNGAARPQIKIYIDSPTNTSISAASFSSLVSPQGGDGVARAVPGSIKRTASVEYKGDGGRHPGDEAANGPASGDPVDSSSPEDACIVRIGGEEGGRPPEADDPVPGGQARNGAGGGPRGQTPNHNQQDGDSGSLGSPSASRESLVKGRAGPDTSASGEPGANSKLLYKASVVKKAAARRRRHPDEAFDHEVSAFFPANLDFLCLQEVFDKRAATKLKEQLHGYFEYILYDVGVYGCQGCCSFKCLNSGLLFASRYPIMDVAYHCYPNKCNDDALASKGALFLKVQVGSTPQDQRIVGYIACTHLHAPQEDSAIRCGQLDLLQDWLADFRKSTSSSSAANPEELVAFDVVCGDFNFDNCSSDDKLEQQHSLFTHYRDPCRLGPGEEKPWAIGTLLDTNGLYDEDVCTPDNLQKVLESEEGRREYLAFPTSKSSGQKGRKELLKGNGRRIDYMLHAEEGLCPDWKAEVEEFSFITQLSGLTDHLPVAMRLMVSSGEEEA
Assay: Not found
Source text: Not found

SMILES	IC50 [µM]
COc1ccc(-n2cnc3c(N4CC[C@@H](NC(C)=O)C4)nc(C)nc32)cc1OC [US20240115574, Entry 2-PROV]	> 100
COc1ccc(-n2c(C)nc3c(N4CC[C@@H](NC(C)=O)C4)ncnc32)cc1OC [US20240115574, Entry 5-PROV]	> 100
COc1ccc(-n2cnc3c(N4CC[C@@H](NC(C)=O)C4)ncnc32)cc1OC [US20240115574, Entry 6-PROV]	> 100
COc1ccc(-c2c(C)nn3c(N4CC[C@@H](NC(C)=O)C4)cc(C)nc23)cc1OC [US20240115574, Entry 7-PROV]	> 100
COc1ccc(-n2ncc3c(N4CC[C@@H](NC(C)=O)C4)nc(C)nc32)cc1OC [US20240115574, Entry 10-PROV]	> 100
COc1ccc(-c2c3nc(C)nc(N4CC[C@@H](NC(C)=O)C4)c3nn2C)cc1OC [US20240115574, Entry 12-PROV]	> 100
COc1ccc(-c2nn(C)c3c(N4CC[C@@H](NC(C)=O)C4)nc(C)nc23)cc1OC [US20240115574, Entry 13-PROV]	> 100
COc1ccc(-c2c(C)nn3c(N4CC[C@@H](NC(C)=O)C4)nc(C)nc23)cc1OC [US20240115574, Entry 36-PROV]	> 100
